Laboratory results reported in patent US5700640A, “Inducers of gamma globin gene expression and screening assays therefor” (priority 1994, dated 1997).

Assays:
[1] = tested on: gamma globin-regulated luciferase mRNA; assay: cells; type: cell-based, human; conditions: Homo sapiens, K562, 5 h, read-out: increase in luciferase mRNA
Protocol: Total RNA was prepared by the method of McDonald as described in Sambrook et al., (1989) Molecular Cloning: A Laboratory Manual, 2nd Edition, Cold Spring Harbor Laboratory Press. 10 μg total cellular RNA was electrophoresed through agarose gels containing 3.3% formaldehyde. The electrophoresed RNA was then transferred to nitrocellulose filters by standard methods. Each sample was hybridized to specific probes for gamma globin mRNA, mRNA encoding the erythroid specific transcription factor GATA-1 and 28S ribosomal RNA (which was used for standardization). The gamma globin and GATA-1 probes were cDNA probes, which were labeled with ^32 p by random priming reactions (Promega Biotech Inc.). The 28S ribosomal RNA probe was an oligonucleotide having the sequence 5' […] 3' (SEQ ID NO: 3), which was labeled by 5' end labeling using T4 polynucleotide kinase (New England Biolabs). Nucleotide probes were hybridized to the RNA nitrocellulose filters according to standard techniques. After hybridization, radioactive signals on the nitrocellulose filters were directly quantified using a BioRad GS-250 Molecular Imager. mRNA hybridization intensities were normalized to the amount of 28S ribosomal RNA present for each sample. The results are summarized below in Table 1:
To determine if BA exerts its inductive effects by acting directly on pre-existing proteins in the cells, the effect of the protein synthesis inhibitor cycloheximide (CHX) on BA-induced expression of RNA was analyzed. In these experiments, gamma3'PE cells were incubated with 150 μg/ml CHX for 2 hr prior to addition of BA (5 mM). Control cells were incubated with either CHX or BA alone or were mock incubated. Cells were harvested 5 hr later for preparation of total RNA. RNA samples were electrophoresed, transferred to nitrocellulose and hybridized to a ^32 P-labeled luciferase cDNA probe as described in Example 4. The radioactive signals on the filter were quantitated using a BioRad GS-250 Molecular Imager and mRNA levels were normalized to values obtained for mock treated samples. […]

in vitro = conditions: human, k562 cells
Protocol: (§1) To normalize luciferase units to the number of viable cells, parallel cell viability assays were performed using 3-(4,5-dimethylthiazol-2-yl)-2,5-diphenyltetrazolium bromide (MTT) (Vistica, D. T. et al. (1991) Cancer Res. 51:2515-2520). Transfected K562 cells were plated in 96 well dishes at a density of 2×10^4 and 2×10^3 cells per 100 μl per well. 24 hours later, the cells were treated with test compounds (at a final concentration of 5 mM). At 24, 50, 74 or 122 hours after treatment, 50 μl of 3 mg/ml MTT in PBS was added to each well. The 96 well plate was then incubated at 37° C. for 4 to 5 hours. The formazan derivatives formed from tetrazolium by viable cells were solubilized by the addition of 50 μl/well 25% SDS, pH 3, overnight at 37° C. The plates were than read at a wavelength of 550 nm.

K562 cells = assay: in vitro
Protocol: as §1

[2] = tested on: erythroid differentiation of cultured cells; conditions: Leder and Leder 1975; cited from earlier work
[3] = tested on: gamma globin-luciferase reporter constructs in K562 cells; assay: BA inducibility of different gamma globin-reporter gene constructs in transiently transfected K562 cells; type: cell-based, human
From the text: The entire human globin gene locus, spanning approximately 150 kilobases, is shown schematically in FIG. 1. Depicted are the different globin structural genes and cis-active regulatory elements (e.g., promoters and enhancers). To construct gamma globin reporter gene plasmids, nucleic acid fragments comprising nucleotide sequences normally flanking (i.e., at either the 5' or 3' end of) the gamma globin gene were obtained and subcloned into a plasmid encoding a reporter gene. The human gamma globin 5' promoter fragment consisted of nucleotides -1200 to +30, relative to the start site of transcription (nucleotide numbers 38205 to 39435 of the human gamma globin gene in the GENEMBL database, accession number J00179). The promoter fragment was obtained from human genomic DNA by polymerase chain reaction (PCR) amplification using oligonucleotide primers of the sequences: […]
These constructs are illustrated schematically in FIG. 2.
In a first series of experiments, K562 cells transiently transfected with the different gamma globin-reporter genes described in Example 1 were treated with butyric acid (BA). After treatment, the level of reporter gene activity (i.e., luciferase activity) in the treated cells was compared to determine the BA-inducibility of the different reporter gene constructs. The results are shown graphically in FIG. 2, which illustrates the fold induction of luciferase activity by BA relative to untreated cells. […] All other constructs tested (including gammaSV40, beta3'PE, HS2/3gamma3'PE and gamma) were at least 2 fold less responsive to BA treatment.
To test whether the increased sensitivity of the gamma globin promoter to BA was due to a specific property of the globin 3' Proximal Enhancer or if this was a property of transcriptional enhancers in general, two copies of the 72 bp repeat of the SV40 enhancer (isolated by PCR from the simian virus 40 genome) were substituted for the 3' Proximal Enhancer in the context of the gamma globin promoter (construct gammaSV40). […] This may be due to the unnatural proximity of these enhancer sequences to the gamma globin promoter in this construct. Normally, these sequence reside over 30 kB upstream of the promoter and one function of BA in vivo may be to promote interaction between the chromosomal LCR sequences and the gamma globin promoter. Artificially positioning the LCR components near the gamma globin promoter may have in fact complemented the effect of BA. Thus, empirically, it appears that maintaining the cis-active elements of the gamma globin locus in their natural context is important for developing the most sensitive reporter gene assay system for detecting gone induction by short chain fatty acids such as BA.

Which fold induction at 5000 µM [1] does the source give for CCCC(=O)O [BA, butyric acid] here?
Its fold induction at 5000 µM is roughly 6.

What about the cytotoxicity at 72 h, 5000 µM (in vitro) of the same molecule?
Its cytotoxicity at 72 h, 5000 µM is roughly 100%.

And the viability at 122 h, 5000 µM (in vitro)?
The viability at 122 h, 5000 µM was less than 30%.

And the “effect on cell viability within 24 hours (FIG. 7)” value (K562 cells)?
The value was “negative effect on cell viability within 24 hours after treatment”.

What about the “induction of erythroid differentiation” value [2] of the same molecule?
Its value is “potent inducer of erythroid differentiation of cultured cells”.

What about the “effect of LCR sequences on BA sensitivity of gamma3'PE construct” value ([3]; HS2/3gamma3'PE vs gamma3'PE) of the same molecule?
The value was “reduce the sensitivity of the gamma3'PE construct to BA”.

And the “BA induction of beta3'PE construct” value ([3]; beta globin promoter with 3'Proximal Enhancer)?
Its value is “not inducible”.

What about the “BA responsiveness of gamma3'PE construct” value ([3]; gamma3'PE, fold induction relative to untreated cells) of the same molecule?
Its value is “most responsive to BA”.

What about the “BA induction of gamma construct” value ([3]; gamma globin promoter without 3' Proximal Enhancer) of the same molecule?
Its value is “inducible, albeit to a lesser extent than when in the context of the 3' Proximal Enhancer”.

What about the “SV40 enhancer effect on BA responsiveness of gamma globin promoter” value ([3]; gammaSV40) of the same molecule?
Its value is “not effective in augmenting the responsiveness of the gamma globin promoter to BA”.

And the “fold lower BA responsiveness of other constructs than gamma3'PE” value ([3]; gammaSV40, beta3'PE, HS2/3gamma3'PE and gamma, transient transfection)?
Its value is “at least 2 fold”.

What about the “BA induction of promoterless constructs” value ([3]; luciferase gene only or fused to 3'Proximal Enhancer) of the same molecule?
Its value is “not induced by BA”.
